Source: ChEMBL document CHEMBL1201862, “PubChem BioAssay data set” (2004)
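Results reflect a 48-hour exposure of cells in 96-well plates to compound at five concentrations. GI50 marks 50% less growth.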 The source made the active and inactive calls. Rule as the data show it: active = GI50 up to about 1.1 µM and inactive = higher.

What was measured:
Test in all cases: inhibition of tumour cell growth, NCI panel, 48 h
786-0 = system: 786-0
A498 = system: A498
ACHN = system: ACHN
CAKI-1 = system: CAKI-1
CCRF-CEM = system: CCRF-CEM
DU-145 = system: DU-145
EKVX = system: EKVX
HCC 2998 = system: HCC 2998
HCT-116 = system: HCT-116
HCT-15 = system: HCT-15
HL-60 = system: HL-60
HOP-62 = system: HOP-62
HOP-92 = system: HOP-92
HT-29 = system: HT-29
Hs-578T = system: Hs-578T
IGROV-1 = system: IGROV-1
K562 = system: K562
KM12 = system: KM12
LOX IMVI = system: LOX IMVI
M14 = system: M14
MCF7 = system: MCF7
MDA-MB-231 = system: MDA-MB-231
MDA-MB-435 = system: MDA-MB-435
MDA-N = system: MDA-N
MOLT-4 = system: MOLT-4
NCI-H226 = system: NCI-H226
NCI-H23 = system: NCI-H23
NCI-H460 = system: NCI-H460
NCI-H522 = system: NCI-H522
NCI/ADR-RES = system: NCI/ADR-RES
OVCAR-3 = system: OVCAR-3
OVCAR-4 = system: OVCAR-4
OVCAR-5 = system: OVCAR-5
OVCAR-8 = system: OVCAR-8
PC-3 = system: PC-3
RPMI-8226 = system: RPMI-8226
RXF 393 = system: RXF 393
SF-268 = system: SF-268
SF-295 = system: SF-295
SF-539 = system: SF-539
SK-MEL-28 = system: SK-MEL-28
SK-MEL-2 = system: SK-MEL-2
SK-MEL-5 = system: SK-MEL-5
SK-OV-3 = system: SK-OV-3
SR = system: SR
SW-620 = system: SW-620
T47D = system: T47D
TK-10 = system: TK-10
U-251 = system: U-251
UACC-257 = system: UACC-257
UO-31 = system: UO-31
COLO 205 = system: COLO 205
Malme-3M = system: Malme-3M
SN12C = system: SN12C
SNB-19 = system: SNB-19
SNB-75 = system: SNB-75
UACC-62 = system: UACC-62
A549 = system: A549

## Cc1cc(OCc2nnc3n2N=C(c2cc(F)c(Cl)cc2Cl)/C(=C/c2ccc(Cl)cc2)S3)ccc1Cl
786-0
  GI50: 28.1 µM (inactive)
A498
  GI50: 24.2 µM (inactive)
ACHN
  GI50: 33.5 µM (inactive)
CAKI-1
  GI50: 18.6 µM (inactive)
CCRF-CEM
  GI50: 2.95 µM (inactive)
DU-145
  GI50: 17.4 µM (inactive)
EKVX
  GI50: 39.4 µM (inactive)
HCC 2998
  GI50: 19.6 µM (inactive)
HCT-116
  GI50: 12.8 µM (inactive)
HCT-15
  GI50: 19.7 µM
HL-60
  GI50: 1.91 µM (inactive)
HOP-62
  GI50: 43.1 µM (inactive)
HOP-92
  GI50: 18.1 µM (inactive)
HT-29
  GI50: 16.7 µM (inactive)
Hs-578T
  GI50: 15.2 µM (inactive)
IGROV-1
  GI50: 20.9 µM (inactive)
K562
  GI50: 8.38 µM (inactive)
KM12
  GI50: 22.9 µM (inactive)
LOX IMVI
  GI50: 21.9 µM (inactive)
M14
  GI50: 25 µM (inactive)
MCF7
  GI50: 23.3 µM (inactive)
MDA-MB-231
  GI50: 29.7 µM (inactive)
MDA-MB-435
  GI50: 24.2 µM (inactive)
MDA-N
  GI50: 32.4 µM (inactive)
MOLT-4
  GI50: 0.337 µM (active)
NCI-H226
  GI50: 46 µM (inactive)
NCI-H23
  GI50: 27.4 µM (inactive)
NCI-H460
  GI50: 25.9 µM (inactive)
NCI-H522
  GI50: 14.7 µM (inactive)
NCI/ADR-RES
  GI50: 33.2 µM (inactive)
OVCAR-3
  GI50: 30.5 µM (inactive)
OVCAR-4
  GI50: 19.5 µM (inactive)
OVCAR-5
  GI50: 24.1 µM (inactive)
OVCAR-8
  GI50: 18.8 µM (inactive)
PC-3
  GI50: 21.4 µM (inactive)
RPMI-8226
  GI50: 11.7 µM (inactive)
RXF 393
  GI50: 17 µM (inactive)
SF-268
  GI50: 22.8 µM (inactive)
SF-295
  GI50: 29.9 µM (inactive)
SF-539
  GI50: 44.9 µM (inactive)
SK-MEL-28
  GI50: 19.8 µM (inactive)
SK-MEL-2
  GI50: 29 µM (inactive)
SK-MEL-5
  GI50: 17.9 µM (inactive)
SK-OV-3
  GI50: 50.9 µM (inactive)
SR
  GI50: 7.96 µM (inactive)
SW-620
  GI50: 17.4 µM (inactive)
T47D
  GI50: 20.4 µM (inactive)
TK-10
  GI50: 32.6 µM (inactive)
U-251
  GI50: 18.3 µM (inactive)
UACC-257
  GI50: 38.5 µM (inactive)
UO-31
  GI50: 27.5 µM (inactive)

## COc1cc(/C=C/c2ccc(S(N)(=O)=O)cc2)cc(OC)c1
786-0
  GI50: 21.5 µM (inactive)
A498
  GI50: 18.2 µM (inactive)
COLO 205
  GI50: 15.9 µM (inactive)
DU-145
  GI50: 32.7 µM (inactive)
EKVX
  GI50: 22.4 µM (inactive)
HCC 2998
  GI50: 19.7 µM (inactive)
HCT-116
  GI50: 14.5 µM (inactive)
HOP-62
  GI50: 28.9 µM (inactive)
M14
  GI50: 51.2 µM (inactive)
MCF7
  GI50: 24.6 µM (inactive)
MDA-MB-231
  GI50: 16.9 µM (inactive)
MDA-N
  GI50: 20.6 µM (inactive)
Malme-3M
  GI50: 14.8 µM (inactive)
NCI-H460
  GI50: 17.7 µM (inactive)
NCI/ADR-RES
  GI50: 23.8 µM (inactive)
OVCAR-3
  GI50: 16.5 µM (inactive)
OVCAR-5
  GI50: 39.8 µM (inactive)
PC-3
  GI50: 19.5 µM (inactive)
RXF 393
  GI50: 13.1 µM (inactive)
SF-295
  GI50: 22.6 µM (inactive)
SK-MEL-28
  GI50: 23.9 µM (inactive)
SK-MEL-2
  GI50: 18.7 µM (inactive)
SK-MEL-5
  GI50: 16.2 µM (inactive)
SK-OV-3
  GI50: 24.5 µM (inactive)
SN12C
  GI50: 22.6 µM (inactive)
SNB-19
  GI50: 39.1 µM (inactive)
SNB-75
  GI50: 14.1 µM (inactive)
T47D
  GI50: 8.18 µM (inactive)
TK-10
  GI50: 22.4 µM (inactive)
UACC-257
  GI50: 20.3 µM (inactive)
UO-31
  GI50: 21.9 µM (inactive)

## O=C1c2ccccc2-c2oc(=O)c3ccccc3c21
786-0
  GI50: > 100 µM (inactive)
A498
  GI50: > 100 µM (inactive)
ACHN
  GI50: > 100 µM (inactive)
CAKI-1
  GI50: > 100 µM (inactive)
CCRF-CEM
  GI50: > 100 µM (inactive)
COLO 205
  GI50: > 100 µM (inactive)
DU-145
  GI50: > 100 µM (inactive)
EKVX
  GI50: 24.8 µM (inactive)
HCT-116
  GI50: > 100 µM (inactive)
HCT-15
  GI50: > 100 µM
HL-60
  GI50: > 100 µM (inactive)
HOP-62
  GI50: > 100 µM (inactive)
HOP-92
  GI50: > 100 µM (inactive)
HT-29
  GI50: > 100 µM (inactive)
Hs-578T
  GI50: > 100 µM (inactive)
IGROV-1
  GI50: 32.7 µM (inactive)
KM12
  GI50: > 100 µM (inactive)
LOX IMVI
  GI50: > 100 µM (inactive)
M14
  GI50: > 100 µM (inactive)
MCF7
  GI50: > 100 µM (inactive)
MDA-MB-231
  GI50: > 100 µM (inactive)
MDA-MB-435
  GI50: > 100 µM (inactive)
MDA-N
  GI50: > 100 µM (inactive)
MOLT-4
  GI50: > 100 µM (inactive)
NCI-H226
  GI50: > 100 µM (inactive)
NCI-H23
  GI50: > 100 µM (inactive)
NCI-H460
  GI50: > 100 µM (inactive)
NCI-H522
  GI50: 0.962 µM (active)
NCI/ADR-RES
  GI50: > 100 µM (inactive)
OVCAR-3
  GI50: > 100 µM (inactive)
OVCAR-4
  GI50: > 100 µM (inactive)
OVCAR-5
  GI50: > 100 µM (inactive)
OVCAR-8
  GI50: > 100 µM (inactive)
PC-3
  GI50: > 100 µM (inactive)
RPMI-8226
  GI50: 41.3 µM (inactive)
RXF 393
  GI50: > 100 µM (inactive)
SF-295
  GI50: > 100 µM (inactive)
SF-539
  GI50: > 100 µM (inactive)
SK-MEL-28
  GI50: > 100 µM (inactive)
SK-MEL-2
  GI50: > 100 µM (inactive)
SK-MEL-5
  GI50: > 100 µM (inactive)
SK-OV-3
  GI50: > 100 µM (inactive)
SN12C
  GI50: > 100 µM (inactive)
SNB-19
  GI50: > 100 µM (inactive)
SNB-75
  GI50: > 100 µM (inactive)
SW-620
  GI50: > 100 µM (inactive)
T47D
  GI50: > 100 µM (inactive)
TK-10
  GI50: > 100 µM (inactive)
U-251
  GI50: > 100 µM (inactive)
UACC-257
  GI50: > 100 µM (inactive)
UACC-62
  GI50: > 100 µM (inactive)
UO-31
  GI50: > 100 µM (inactive)

## C/C(=C/CNc1ncnc2c1ncn2CCC#N)CO
786-0
  GI50: > 100 µM (inactive)
A498
  GI50: > 100 µM (inactive)
A549
  GI50: > 100 µM (inactive)
ACHN
  GI50: > 100 µM (inactive)
CAKI-1
  GI50: > 100 µM (inactive)
CCRF-CEM
  GI50: > 100 µM (inactive)
COLO 205
  GI50: > 100 µM (inactive)
DU-145
  GI50: > 100 µM (inactive)
EKVX
  GI50: > 100 µM (inactive)
HCC 2998
  GI50: > 100 µM (inactive)
HCT-116
  GI50: > 100 µM (inactive)
HL-60
  GI50: > 100 µM (inactive)
HOP-62
  GI50: > 100 µM (inactive)
HOP-92
  GI50: > 100 µM (inactive)
HT-29
  GI50: > 100 µM (inactive)
Hs-578T
  GI50: > 100 µM (inactive)
IGROV-1
  GI50: > 100 µM (inactive)
K562
  GI50: > 100 µM (inactive)
KM12
  GI50: > 100 µM (inactive)
LOX IMVI
  GI50: > 100 µM (inactive)
M14
  GI50: > 100 µM (inactive)
MCF7
  GI50: > 100 µM (inactive)
MDA-MB-231
  GI50: > 100 µM (inactive)
MDA-MB-435
  GI50: > 100 µM (inactive)
MDA-N
  GI50: > 100 µM (inactive)
MOLT-4
  GI50: > 100 µM (inactive)
Malme-3M
  GI50: > 100 µM (inactive)
NCI-H226
  GI50: > 100 µM (inactive)
NCI-H23
  GI50: > 100 µM (inactive)
NCI-H460
  GI50: > 100 µM (inactive)
NCI-H522
  GI50: > 100 µM (inactive)
NCI/ADR-RES
  GI50: > 100 µM (inactive)
OVCAR-3
  GI50: > 100 µM (inactive)
OVCAR-4
  GI50: > 100 µM (inactive)
OVCAR-5
  GI50: > 100 µM (inactive)
OVCAR-8
  GI50: > 100 µM (inactive)
PC-3
  GI50: > 100 µM (inactive)
RPMI-8226
  GI50: > 100 µM (inactive)
RXF 393
  GI50: > 100 µM (inactive)
SF-268
  GI50: > 100 µM (inactive)
SF-295
  GI50: > 100 µM (inactive)
SF-539
  GI50: > 100 µM (inactive)
SK-MEL-28
  GI50: > 100 µM (inactive)
SK-MEL-5
  GI50: > 100 µM (inactive)
SK-OV-3
  GI50: > 100 µM (inactive)
SN12C
  GI50: > 100 µM (inactive)
SNB-19
  GI50: > 100 µM (inactive)
SNB-75
  GI50: > 100 µM (inactive)
SR
  GI50: > 100 µM (inactive)
SW-620
  GI50: > 100 µM (inactive)
T47D
  GI50: > 100 µM (inactive)
TK-10
  GI50: > 100 µM (inactive)
UACC-257
  GI50: > 100 µM (inactive)
UACC-62
  GI50: > 100 µM (inactive)
UO-31
  GI50: > 100 µM (inactive)
